# Assay results published in US4122184A, “Benzimidazole insecticides” (priority 1977, dated 1978).
# Assays:
# Two-spotted Spider Mite = Two-spotted Spider Mite test; format: in vivo, Tetranychus urticae (Acarina); conditions: 48 h
# Method: The procedure in this test is the same as that in the previous aphid test, except that about 100 two-spotted spider mites from a stock colony raised on squash plants are transferred to a cut squash cotyledon. The mortality is estimated 48 hours after spraying. The same rating scale is used.
# Milkweed Bug = Milkweed Bug Test; format: in vivo, Oncopeltis fasciatus (Hemiptera); conditions: 100 ppm, 48 h
# Method: Ten adult milkweed bugs are chilled and placed in a test cage. The cages containing the bugs are sprayed with 5 ml. of a test formulation containing a pre-determined amount of the insecticide, using a DeVilbiss atomizer at 10 psi held 33 inches from the top of the cage. After the cage has been allowed to dry, the bugs are fed and watered for 48 hours. A formulation containing 500 ppm of malathion is used as a reference standard and two unsprayed cages are kept as controls. Mortality counts are made 48 hours after spraying. Moribund adults are considered dead. The same rating scale is employed as before.
# Boll Weevil [1] = test: Boll Weevil Test; format: in vivo, Anthonomus grandis (Coleoptera); conditions: 48 h
# Source text: The procedure is identical to that employed for the Mexican bean beetle and the Southern armyworm, except that 10 adult boll weevils are placed on cotton leaves that have been dipped into formulations of the test compounds. The same rating scale is used.
# Alfalfa Weevil Larvae [2] = test: Field trial, stomach poison test; format: in vivo
# Method: (§1) Leaves from the infested plant are treated with different concentrations of the test compounds, either by spraying with a DeVilbiss Special Atomizer (5004) at 10 psi or by dipping the leaves in solutions containing the compound. The leaves are then allowed to air dry.
# (§2) After the leaves have dryed, they are placed in plastic petri dishes (100 × 25 mm), then the insects are counted out into each dish, five or ten insects per dish depending on the number of insects available. There are one or two replicates and usually two or three rates with each compound. Mortality results are taken at 24, 48 and 72 hours. The rating scale is 0 to 9.
# (§3) Using the above methods, field trials were carried out against species of 5 orders of insects. The results, which are summarized in the following tables, give the average mortality for the particular insect with a given benzimidazole for each concentration employed. […] These tables contain all results obtained during the summer trials.
# Meadow Spittlebug = test: Field trial, stomach poison test; format: in vivo
# Method: as §1, §2, §3
# [3] = test system: Potato Flea Beetle Adults; test: Field trial, stomach poison test; format: in vivo
# Method: as §1, §2, §3
# [4] = test system: Southern Corn Rootworm Adults; test: Field trial, stomach poison test; format: in vivo; design: key: mortality rating on a 0 to 9 scale
# Method: as §1, §2, §3
# [5] = test system: Striped Cucumber Beetle Adults; test: Field trial, stomach poison test; format: in vivo; design: key: mortality rating on a 0 to 9 scale
# Method: as §1, §2, §3
# [6] = test system: Tarnished Plant Bug Adults; test: Field trial, stomach poison test; format: in vivo; design: key: mortality rating on a 0 to 9 scale
# Method: as §1, §2, §3
# [7] = test system: Unidentified Green Leafhopper; test: Field trial, stomach poison test; format: in vivo; design: key: mortality rating on a 0 to 9 scale
# Method: as §1, §2, §3
# Squash Bug Adults = test: Field trial, contact poison test; format: in vivo; design: key: 0-9 rating: 0 = 0-10% mortality, 9 = 91-100% mortality
# Source text: (§4) Infested plants are placed in 6 oz. prescription bottles filled with water to keep them from wilting. Cellucotton is wrapped around the plant stem and squeezed into the bottle neck to prevent the insects from drowning.
# (§5) A DeVilbiss Special Atomizer (5004) is used at 10 psi to spray the test plant with different concentrations of compounds. The atomizer is held at arm's length to prevent blowing the insects off the host plant. After treating, the bottles are placed on a table covered with brown wrapping paper to catch the dead insects as they drop from the plant. The plants are spaced so the leaves or plants are not touching one another.
# (§6) The results are read at 24, 48, and 72 hours when applicable. The rating scale is 0 to 9 where 0 = 0-10 percent and 9 = 91-100 percent mortality.
# as §3
# Mosquito Larvae = test: Mosquito larvae test (dip test); format: in vivo, Aedes aegypti; conditions: 48 h
# Method: Aedes aegypti larvae 5 days old are allowed to feed on fresh food for at least 3 hours previous to being placed on test. Larvae are then removed from the rearing pans by pouring on a 20 mesh screen, washing with deionized water, and pooling in a 6-inch white enameled sauce pan.
# Twenty larvae are placed in a 1 oz. paper cup containing 25 ml. of deionized water.
# Test chemicals are dissolved in a suitable solvent and pipetted under the surface of 225 ml. of deionized water in one pint wide-mouthed Mason jar test containers and stirred. A cup containing 20 larvae in 25 ml. of water is then added. […]
# Results are determined 48 hours later by counting the dead and moribund larvae. […] Moribund larvae are those that are capable of limited, or poorly coordinated, locomotion in a sluggish manner.
# Live larvae respond normally and actively.
# Alfalfa Weevil Larvae [8] = test: Field trial, contact poison test; format: in vivo
# Source text: as §4, §5, §6, §3
# [9] = test system: Potato Flea Beetle Adults; test: Field trial, contact poison test; format: in vivo
# Source text: as §4, §5, §6, §3
# [10] = test system: Southern Corn Rootworm Adults; test: Field trial, contact poison test; format: in vivo
# Source text: as §4, §5, §6, §3
# Alfalfa Weevil Larvae [11] = test: Field trial, topical application; format: in vivo
# Method: as §6
# (§7) In a variation of the above test, 1 microliter of a test solution containing a predetermined number of micrograms of benzimidazole was applied directly to larvae or adult insects.
# as §3
# Yellow Mealworm Larvae = test: Field trial, topical application; format: in vivo; design: key: 0 = 0-10% mortality, 9 = 91-100% mortality (0-9 scale)
# Method: as §6, §7, §3
# Boll Weevil [12] = test: Field trial (first summer), topical; format: in vivo, Anthonomus grandis
# Method: as §7
# (§8) During the previous summer similar field trials were conducted employing the same tests as heretofore but with some additional species of insects not included in the later tests. The results listed below are for tests in which an insect mortality was established by a given application route and at a given concentration in a particular test. The same 0 - 9 scoring system is used as is the designation of compounds by alphabetical symbols.
# Mexican Bean Beetle = test: Field trial (first summer), topical; format: in vivo, Epilachna varivestis; conditions: .25 μg/μl
# Method: as §7, §8
# Confused Flour Beetle = test: Field trial (first summer), topical; format: in vivo; conditions: .078125 μg/μl
# Method: as §7, §8
# Bean Leaf Beetle [13] = test: Field trial, stomach poison test; format: in vivo
# Method: as §1, §2, §3
# [14] = test system: Red-Legged Grasshopper Adults; test: Field trial, stomach poison test; format: in vivo
# Method: as §1, §2, §3
# Bean Leaf Beetle [15] = test: Field trial, contact poison test; format: in vivo
# Source text: as §4, §5, §6, §3
# [16] = test system: Red-Legged Grasshopper Adults; test: Field trial, contact poison test; format: in vivo
# Source text: as §4, §5, §6, §3
# Picnic Beetle [17] = test: Field trial (first summer), topical; format: in vivo; conditions: .078125 μg/μl
# Method: as §7, §8
# Asparagus Beetles Adults [18] = test: Field trial, stomach poison test; format: in vivo
# Method: as §1, §2, §3
# Asparagus Beetles Adults [19] = test: Field trial, contact poison test; format: in vivo
# Source text: as §4, §5, §6, §3
# Picnic Beetle [20] = test: Field trial (first summer), stomach; format: in vivo; conditions: 250 ppm
# Method: as §1, §2, §8
# Milkweed Beetle = test: Field trial (first summer), contact; format: in vivo; conditions: 125 ppm
# Source text: as §4, §5, §6, §8
# Picnic Beetle [21] = test: Field trial (first summer), contact; format: in vivo; conditions: 250 ppm
# Source text: as §4, §5, §6, §8
structure (smiles),measurement,setting,value
"O=[N+]([O-])c1cc(C(F)(F)F)cc2c1nc(C(F)(F)F)n2S(=O)(=O)c1ccccc1 [F, 2,6-bis(trifluoromethyl)-4-nitro-1-phenylsulfonylbenzimidazole]",mortality rating,Two-spotted Spider Mite; 1 ppm,6.3
same,mortality rating,Two-spotted Spider Mite; 5 ppm,7.5
same,mortality rating,Two-spotted Spider Mite; 10 ppm,6.8
same,mortality rating,Milkweed Bug,7.5
same,mortality rating,Boll Weevil [1]; 25 ppm,7.5
same,mortality rating,Boll Weevil [1]; 50 ppm,6.5
same,mortality rating,Boll Weevil [1]; 250 ppm,8.5
same,average mortality rating,Alfalfa Weevil Larvae [2]; 125 ppm,1
same,average mortality rating,Alfalfa Weevil Larvae [2]; 250 ppm,2
same,average mortality rating,Alfalfa Weevil Larvae [2]; 500 ppm,7
same,average mortality rating,Meadow Spittlebug; 10 ppm,0 (0-10 percent)
same,average mortality rating,Meadow Spittlebug; 25 ppm,1
same,average mortality rating,Meadow Spittlebug; 50 ppm,7
same,average mortality rating,[3]; 10 ppm,9 (91-100 percent mortality)
same,average mortality rating,[3]; 25 ppm,9 (91-100 percent mortality)
same,average mortality rating,[3]; 50 ppm,9 (91-100 percent mortality)
same,average mortality rating,[4]; 25 ppm,3
same,average mortality rating,[4]; 50 ppm,4
same,average mortality rating,[4]; 100 ppm,5
same,average mortality rating,[5]; 10 ppm,0 (0-10 percent)
same,average mortality rating,[5]; 25 ppm,3
same,average mortality rating,[5]; 50 ppm,3
same,average mortality rating,[6]; 10 ppm,4
same,average mortality rating,[6]; 25 ppm,4
same,average mortality rating,[6]; 50 ppm,2
same,average mortality rating,[7]; 10 ppm,1
same,average mortality rating,[7]; 25 ppm,1
same,average mortality rating,[7]; 50 ppm,7
same,average mortality rating,Squash Bug Adults; 125 ppm,0 (0-10 percent)
same,average mortality rating,Squash Bug Adults; 250 ppm,4
same,average mortality rating,Squash Bug Adults; 500 ppm,7
same,average mortality rating,Squash Bug Adults; 750 ppm,9 (91-100 percent mortality)
same,average mortality rating,Mosquito Larvae; 0.010 ppm,8 (85-90%)
same,average mortality rating,Mosquito Larvae; 0.025 ppm,5 (55-60%)
same,average mortality rating,Mosquito Larvae; 0.05 ppm,8 (85-90%)
same,average mortality rating,Mosquito Larvae; 0.1 ppm,9 (95-100%)
same,average mortality rating,Alfalfa Weevil Larvae [8]; 500 ppm,8
same,average mortality rating,Alfalfa Weevil Larvae [8]; 750 ppm,8
same,average mortality rating,Alfalfa Weevil Larvae [8]; 1000 ppm,8
same,average mortality rating,[9]; 10 ppm,8
same,average mortality rating,[9]; 25 ppm,8
same,average mortality rating,[9]; 50 ppm,9 (91-100 percent mortality)
same,average mortality rating,[10]; 25 ppm,2
same,average mortality rating,[10]; 50 ppm,5
same,average mortality rating,[10]; 100 ppm,9 (91-100 percent mortality)
same,average mortality rating,Alfalfa Weevil Larvae [11]; 0.03 μg/μl,1
same,average mortality rating,Alfalfa Weevil Larvae [11]; 0.07 μg/μl,1
same,average mortality rating,Alfalfa Weevil Larvae [11]; 0.1 μg/μl,3
same,average mortality rating,Yellow Mealworm Larvae; 0.03 μg/μl,2
same,average mortality rating,Yellow Mealworm Larvae; 0.07 μg/μl,3
same,average mortality rating,Yellow Mealworm Larvae; 0.15 μg/μl,5
same,insect mortality rating,Boll Weevil [12]; .078125 μg/μl,9 (91-100 percent mortality)
same,insect mortality rating,Mexican Bean Beetle,9 (91-100 percent mortality)
same,insect mortality rating,Confused Flour Beetle,9 (91-100 percent mortality)
"O=[N+]([O-])c1cc(C(F)(F)F)cc2nc(C(F)F)[nH]c12 [Q, 2-difluoromethyl-4-nitro-6-trifluoromethylbenzimidazole]",average mortality rating,Bean Leaf Beetle [13]; 10 ppm,0 (0-10 percent)
same,average mortality rating,Bean Leaf Beetle [13]; 25 ppm,0 (0-10 percent)
same,average mortality rating,Bean Leaf Beetle [13]; 50 ppm,0 (0-10 percent)
same,average mortality rating,[3]; 5 ppm,0 (0-10 percent)
same,average mortality rating,[3]; 10 ppm,1
same,average mortality rating,[3]; 25 ppm,1
same,average mortality rating,[3]; 50 ppm,5
same,average mortality rating,[14]; 10 ppm,1
same,average mortality rating,[14]; 25 ppm,1
same,average mortality rating,[14]; 50 ppm,5
same,average mortality rating,[5]; 10 ppm,2
same,average mortality rating,[5]; 25 ppm,3
same,average mortality rating,[5]; 50 ppm,2
same,average mortality rating,[5]; 100 ppm,2
same,average mortality rating,Bean Leaf Beetle [15]; 25 ppm,0 (0-10 percent)
same,average mortality rating,Bean Leaf Beetle [15]; 50 ppm,0 (0-10 percent)
same,average mortality rating,Bean Leaf Beetle [15]; 100 ppm,0 (0-10 percent)
same,average mortality rating,[9]; 10 ppm,3
same,average mortality rating,[9]; 25 ppm,6
same,average mortality rating,[9]; 50 ppm,8
same,average mortality rating,[16]; 10 ppm,0 (0-10 percent)
same,average mortality rating,[16]; 25 ppm,4
same,average mortality rating,[16]; 50 ppm,5
same,average mortality rating,Yellow Mealworm Larvae; 0.03 μg/μl,1
same,average mortality rating,Yellow Mealworm Larvae; 0.07 μg/μl,4
same,average mortality rating,Yellow Mealworm Larvae; 0.15 μg/μl,7
same,insect mortality rating,Boll Weevil [12]; .15625 μg/μl,5
same,insect mortality rating,Confused Flour Beetle,7
same,insect mortality rating,Picnic Beetle [17],9 (91-100 percent mortality)
"CCN(CC)C(=O)n1c(SC(F)(F)F)nc2c([N+](=O)[O-])cc(SC(F)(F)F)cc21 [S, n,n-diethyl-4-nitro-2,6-bis(trifluoromethyl)thio-1-benzimidazolecarboxamide]",average mortality rating,Asparagus Beetles Adults [18]; 5 ppm,7
same,average mortality rating,Asparagus Beetles Adults [18]; 10 ppm,7
same,average mortality rating,Asparagus Beetles Adults [18]; 25 ppm,9 (91-100 percent mortality)
same,average mortality rating,[3]; 10 ppm,3
same,average mortality rating,[3]; 25 ppm,7
same,average mortality rating,[3]; 50 ppm,9 (91-100 percent mortality)
same,average mortality rating,[6]; 25 ppm,5
same,average mortality rating,[7]; 10 ppm,3
same,average mortality rating,[7]; 25 ppm,0 (0-10 percent)
same,average mortality rating,[7]; 50 ppm,0 (0-10 percent)
same,average mortality rating,Mosquito Larvae; 0.010 ppm,4 (45-50%)
same,average mortality rating,Mosquito Larvae; 0.025 ppm,5 (55-60%)
same,average mortality rating,Mosquito Larvae; 0.05 ppm,5 (55-60%)
same,average mortality rating,Mosquito Larvae; 0.1 ppm,9 (95-100%)
same,average mortality rating,Asparagus Beetles Adults [19]; 10 ppm,0 (0-10 percent)
same,average mortality rating,Asparagus Beetles Adults [19]; 25 ppm,8
same,average mortality rating,Asparagus Beetles Adults [19]; 50 ppm,5
same,average mortality rating,[9]; 10 ppm,5
same,average mortality rating,[9]; 25 ppm,8
same,average mortality rating,[9]; 50 ppm,9 (91-100 percent mortality)
same,average mortality rating,Yellow Mealworm Larvae; 0.03 μg/μl,2
same,average mortality rating,Yellow Mealworm Larvae; 0.07 μg/μl,4
same,average mortality rating,Yellow Mealworm Larvae; 0.15 μg/μl,4
same,insect mortality rating,Picnic Beetle [17],9 (91-100 percent mortality)
same,insect mortality rating,Picnic Beetle [20],9 (91-100 percent mortality)
same,insect mortality rating,Milkweed Beetle,9 (91-100 percent mortality)
same,insect mortality rating,Picnic Beetle [21],9 (91-100 percent mortality)
